Tests used:
[1] = logP by shake-flask method (n-octanol / 0.9% NaCl, Pt by ICP-OES); type: physicochemical; settings: octanol/water, n = 4
Description: An important factor for the pharmacokinetics and the cellular accumulation of the investigated complexes, their lipophilicity was determined by measuring octanol/water partition coefficients (logP) with the shake-flask method. The logP determination was carried out based on a previously described procedure, modified by us to obtain more accurate and repeatable results.
Weighted amounts of the tested platinum complex were suspended by 10 min sonification in 0.9% NaCl water solution, which was previously saturated with n-octanol, and mixed by shaking for 1 h. A simultaneously similar procedure was performed using 5 mL of n-octanol pre-saturated with 0.9% NaCl. Afterward, both suspensions were mixed together, shaken for an additional 1 h, and centrifuged for 5 min. After phase separation and evaporation in vacuo of 1 mL of sample to dryness, the final concentration of Pt was determined by ICP-OES (λ = 265.945 nm) and the partition coefficients were calculated. For the analysis, all samples were dissolved 1:1000 in 2.5% HCl. Each measurement was repeated four times and the final logP was calculated as the arithmetic mean of the four values.

[2] = system: BALB/3T3 (murine embryonic fibroblast); assay: In vitro cytotoxicity, sulforhodamine B assay, normal cells; type: cell-based; settings: for IC50: BALB/3T3 normal cells, normoxia, 72 h
Description: (§1) Determination of the cytotoxic activity of compounds tested was performed separately in the normoxia or hypoxia conditions to reveal their potentially bioreductive properties. The experiment was carried out on three human cancer cell lines: MCF-7 breast, ES-2 ovarian and A549 lung adenocarcinoma as well as normal murine embryonic fibroblast BALB/3T3 cell line. In order to facilitate the preparation of solutions of the tested compounds, their initial solutions for dilution were made by dissolving the compounds in acetone.
(§2) All cell lines were exposed to each compound tested at four different concentrations for 72 h. […] Additionally, all cell lines were exposed to acetone (Avantor Performance Materials, Gliwice, Poland) (the solvent used for tested compounds) at concentrations corresponding to those present in tested compounds’ dilutions.
After 72 h of cell incubation with the compounds tested, the sulforhodamine B (SRB) assay was performed as described by Shekan et al. with minor modifications. The cells were fixed in situ by adding 50 µL per well of cold 50% trichloroacetic acid (Avantor Performance Materials, Gliwice, Poland) and were incubated at 4 °C for one hour. Following that, wells were washed five times with water and air dried. Next, 50 µL of 0.4% solution of sulforhodamine B (Sigma-Aldrich, Steinheim, Germany) in 1% acetic acid (Avantor Performance Materials, Gliwice, Poland) were added to each well and plates were incubated at room temperature for 0.5 h. After incubation time, the unbound dye was removed by washing plates five times with 1% acetic acid, whereas stains bound to cells was solubilized with 10 mM Tris base (Sigma-Aldrich, Steinheim, Germany). The absorbance of each solution was read by the Multiskan RC photometer (Labsystems Diagnostics Oy, Vantaa, Finland) at a 540 nm wavelength. […] IC50 values were calculated for each experiment on the basis of four different concentrations using Cheburator software, as described by Nevozhay. The tested compounds at each concentration were tested in triplicates in a single experiment and each experiment was repeated at least three times independently.

[3] = system: A549 (lung adenocarcinoma); assay: In vitro cytotoxicity, sulforhodamine B assay; type: cell-based, human; settings: for IC50 ± SD / IC50: 72 h
Description: as §1, with “acetone. For this purpose, it was not possible to use more polar aprotic solvents (DMSO, DMF) due to the rapid isomerization of some of the tested complexes under their influence.” for “acetone.”
(§3) All the cell lines were cultured at 37 °C in a humid atmosphere containing 5% CO2. Additionally, in the case of cytotoxicity assay with hypoxic conditions, the cells (MCF-7, ES-2, A549) were maintained at 37 °C in a humid atmosphere containing 5% CO2 and 1% O2 during the entire experiment.
as §2, with “Twenty-four hours before adding the tested compounds, all cell lines were seeded in 96-well plates ([…] AG & Co, Nümbrecht Germany) in an appropriate media with 10^4 cells per well. All” for “All”
(§4) After 72 h of cell incubation with the compounds tested, the sulforhodamine B (SRB) assay was performed as described by Shekan et al. with minor modifications. The cells were fixed in situ by adding 50 µL per well of cold 50% trichloroacetic acid (Avantor Performance Materials, Gliwice, Poland) and were incubated at 4 °C for one hour. Following that, wells were washed five times with water and air dried. Next, 50 µL of 0.4% solution of sulforhodamine B (Sigma-Aldrich, Steinheim, Germany) in 1% acetic acid (Avantor Performance Materials, Gliwice, Poland) were added to each well and plates were incubated at room temperature for 0.5 h. After incubation time, the unbound dye was removed by washing plates five times with 1% acetic acid, whereas stains bound to cells was solubilized with 10 mM Tris base (Sigma-Aldrich, Steinheim, Germany). The absorbance of each solution was read by the Multiskan RC photometer (Labsystems Diagnostics Oy, Vantaa, Finland) at a 540 nm wavelength. Results are presented as mean IC50 (concentration of the compound tested that inhibits cell proliferation by 50%) ± standard deviation. IC50 values were calculated for each experiment on the basis of four different concentrations using Cheburator software, as described by Nevozhay. The tested compounds at each concentration were tested in triplicates in a single experiment and each experiment was repeated at least three times independently.

[4] = system: MCF-7 (breast adenocarcinoma); assay: In vitro cytotoxicity, sulforhodamine B assay; type: cell-based, human; settings: for growth inhibition stronger than reference cisplatin (factor): MCF-7
Description: as §1, with “acetone. For this purpose, it was not possible to use more polar aprotic solvents (DMSO, DMF) due to the rapid isomerization of some of the tested complexes under their influence.” for “acetone.”
as §3
as §2, with “Twenty-four hours before adding the tested compounds, all cell lines were seeded in 96-well plates ([…] AG & Co, Nümbrecht Germany) in an appropriate media with 10^4 cells per well. All” for “All”
as §4

[5] = system: ES-2 (ovarian adenocarcinoma); assay: In vitro cytotoxicity, sulforhodamine B assay; type: cell-based, human; settings: 72 h
Description: as §1, with “acetone. For this purpose, it was not possible to use more polar aprotic solvents (DMSO, DMF) due to the rapid isomerization of some of the tested complexes under their influence.” for “acetone.”
as §3
as §2, with “Twenty-four hours before adding the tested compounds, all cell lines were seeded in 96-well plates ([…] AG & Co, Nümbrecht Germany) in an appropriate media with 10^4 cells per well. All” for “All”
as §4

| logP ± SD [1] | Structure (SMILES) | IC50 [2] | IC50 ± SD ([3]; A549, hypoxia (1% O2)) | IC50 ([3]; A549, normoxia) | IC50 ± SD ([4]; MCF-7, hypoxia (1% O2), 72 h) | IC50 ([4]; MCF-7, normoxia, 72 h) | IC50 ([5]; ES-2, hypoxia (1% O2)) | IC50 ([5]; ES-2, normoxia) | growth inhibition stronger than reference cisplatin (factor) [4] | IC50 ([4]; MCF-7, hypoxia (1% O2), 72 h) | selectivity index (SI; ratio of cytotoxic concentration for healthy cells to that for cancer cells) ([2]; BALB/3T3 vs MCF-7, ES-2, A549, range) | effect stronger than reference cisplatin (times) ([3]; A549) | IC50 ([3]; A549, hypoxia (1% O2)) |
| --- | --- | --- | --- | --- | --- | --- | --- | --- | --- | --- | --- | --- | --- |
| 0.46 ± 0.00 | Cn1c([N+](=O)[O-])cc[n+]1[Pt@SP3-2]([Cl])([Cl])[n+]1ccc([N+](=O)[O-])n1C [Compound 4, trans-dichloridobis(1-methyl-5-nitropyrazole)platinum(II)] | 74.4 ± 23.2 µM | inactive | 31 ± 9.5 µM |  | 7.8 ± 1.3 µM | 32.3 ± 27 µM | 41.1 ± 7.1 µM | almost two times | 32 ± 9.2 µM |  |  |  |
| −0.31 ± 0.04 | Cn1c([N+](=O)[O-])cc[n+]1[Pt@SP2-2]([Cl])([Cl])[n+]1ccc([N+](=O)[O-])n1C [Compound 3, cis-dichloridobis(1-methyl-5-nitropyrazole)platinum(II)] | > 100 µM | inactive | 53.4 ± 10 µM |  | 10.1 ± 1.4 µM | 51.9 ± 16.7 µM | 75.4 ± 12.3 µM |  | 41.5 ± 39.9 µM |  |  |  |
| 1.43 ± 0.16, | Cn1cc([N+](=O)[O-])c[n+]1[Pt@SP3-2]([Cl])([Cl])[n+]1cc([N+](=O)[O-])cn1C [Compound 2, trans-dichloridobis(1-methyl-4-nitropyrazole)platinum(II)] | 8.19 ± 2.9 µM |  | 3.7 ± 2.9 µM |  | 1.8 ± 0.9 µM | 1.1 ± 0.3 µM | 0.7 ± 0.7 µM | about seven times | 11.1 ± 5.6 µM | 2.2–11.7 | 2.6 times | 7.7 ± 7.4 µM |

| Structure (SMILES) | logP ± SD [1] | IC50 [2] | IC50 ± SD ([3]; A549, hypoxia (1% O2)) | IC50 ([3]; A549, normoxia) | IC50 ± SD ([4]; MCF-7, hypoxia (1% O2), 72 h) | IC50 ([4]; MCF-7, normoxia, 72 h) | IC50 ([5]; ES-2, hypoxia (1% O2)) | IC50 ([5]; ES-2, normoxia) | growth inhibition stronger than reference cisplatin (factor) [4] | IC50 ([4]; MCF-7, hypoxia (1% O2), 72 h) | selectivity index (SI; ratio of cytotoxic concentration for healthy cells to that for cancer cells) ([2]; BALB/3T3 vs MCF-7, ES-2, A549, range) | effect stronger than reference cisplatin (times) ([3]; A549) | IC50 ([3]; A549, hypoxia (1% O2)) |
| --- | --- | --- | --- | --- | --- | --- | --- | --- | --- | --- | --- | --- | --- |
| Cn1cc([N+](=O)[O-])c[n+]1[Pt@SP2-2]([Cl])([Cl])[n+]1cc([N+](=O)[O-])cn1C [Compound 1, cis-dichloridobis(1-methyl-4-nitropyrazole)platinum(II)] | −0.35 ± 0.04 | > 100 µM | inactive | 103 ± 28.8 µM | inactive | 74.7 ± 36.1 µM | 109 ± 22.6 µM | 29.4 ± 24.9 µM |  |  |  |  |  |
